Experimental data as given in ChEMBL document CHEMBL5532720, “A Potent Solution for Tumor Growth and Angiogenesis Suppression via an ELR+CXCL-CXCR1/2 Pathway Inhibitor” (ACS Med Chem Lett, 2024).
pIC50: −log10 of the molar value. Activity calls are given as the source filed them. The rule behind the calls is not given here.

Tests used:
[1] = target: Mitogen-activated protein kinase 9 (Homo sapiens) (UniProt P45984); assay: Inhibition of MAPK9 (unknown origin) at 10 uM in presence of ATP at Km concentration
[2] = Stability in mouse microsomes assessed as compound remaining measured after 1 hrs; format: ADME, Microsome; conditions: read-out: Stability
[3] = target: Mitogen-activated protein kinase kinase kinase kinase 4 (Homo sapiens) (UniProt O95819); assay: Inhibition of MAP4K4 (unknown origin) at 10 uM in presence of ATP at Km concentration
[4] = target: Inhibitor of nuclear factor kappa-B kinase subunit beta (Homo sapiens) (UniProt O14920); assay: Inhibition of IKBKB (unknown origin) at 10 uM in presence of ATP at Km concentration
[5] = Stability in mouse plasma assessed as half-life; format: ADME, cell-free
[6] = Genotoxicity in Salmonella typhimurium TA100 upto 100 uM in absence of S9 fraction by Ames test; format: toxicity; conditions: salmonella enterica subsp. enterica serovar typhimurium, s9, 100 µM
[7] = AUC (0 to infinity) in NOD SCID mouse at 1 mg/kg, iv; format: ADME, organism-based; conditions: in vivo
[8] = target: Phosphorylase b kinase gamma catalytic chain, liver/testis isoform (Homo sapiens) (UniProt P15735); assay: Inhibition of PHKG2 (unknown origin) at 10 uM in presence of ATP at Km concentration
A498 [9] = assay: Inhibition of CXCL5 secretion in human A498 cells at 1 to 2.5 uM incubated for 48 hrs by ELISA; format: functional, cell-based; conditions: dose 1-2.5 µM
[10] = target: Mitogen-activated protein kinase kinase kinase kinase 5 (Homo sapiens) (UniProt Q9Y4K4); assay: Inhibition of MAP4K5 (unknown origin) at 10 uM in presence of ATP at Km concentration
Chain of Mitogen-activated protein kinase kinase kinase kinase 5 (Homo sapiens) (Q9Y4K4 whole entry, looked up): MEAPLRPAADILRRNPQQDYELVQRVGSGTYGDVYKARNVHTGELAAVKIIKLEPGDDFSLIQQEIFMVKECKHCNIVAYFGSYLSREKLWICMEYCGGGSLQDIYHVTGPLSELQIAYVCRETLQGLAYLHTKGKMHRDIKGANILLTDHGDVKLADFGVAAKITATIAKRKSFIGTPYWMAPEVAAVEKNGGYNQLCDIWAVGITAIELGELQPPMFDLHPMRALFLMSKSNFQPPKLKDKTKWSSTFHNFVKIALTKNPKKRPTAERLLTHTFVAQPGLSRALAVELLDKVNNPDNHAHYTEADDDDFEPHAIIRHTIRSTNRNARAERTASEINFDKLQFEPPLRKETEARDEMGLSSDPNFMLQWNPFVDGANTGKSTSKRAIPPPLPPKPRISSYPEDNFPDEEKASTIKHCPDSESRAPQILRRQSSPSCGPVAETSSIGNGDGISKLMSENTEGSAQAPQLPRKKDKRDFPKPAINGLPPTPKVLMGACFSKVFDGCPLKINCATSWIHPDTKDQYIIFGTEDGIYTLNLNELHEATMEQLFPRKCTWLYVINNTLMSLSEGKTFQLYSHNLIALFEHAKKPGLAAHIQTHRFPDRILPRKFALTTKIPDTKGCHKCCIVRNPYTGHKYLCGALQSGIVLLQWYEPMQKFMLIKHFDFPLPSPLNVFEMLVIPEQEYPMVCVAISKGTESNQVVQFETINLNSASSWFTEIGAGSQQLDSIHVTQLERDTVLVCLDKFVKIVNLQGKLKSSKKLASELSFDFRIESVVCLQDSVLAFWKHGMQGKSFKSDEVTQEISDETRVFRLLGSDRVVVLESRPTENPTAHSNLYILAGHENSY

[11] = target: Ribosomal protein S6 kinase alpha-2 (Homo sapiens) (UniProt Q15349); assay: Inhibition of RPS6KA2 (unknown origin) at 10 uM in presence of ATP at Km concentration
A498 [12] = assay: Inhibition of CXCL1 secretion in human A498 cells at 1 to 2.5 uM incubated for 48 hrs by ELISA; format: functional, cell-based; conditions: dose 1-2.5 µM
[13] = Half-life in NOD SCID mouse at 100 mg/kg, po; format: ADME, organism-based; conditions: in vivo
[14] = Antiproliferative activity against human Cisplatin and radiotherapy resistant CAL33RR cells incubated for 48 hrs by XTT assay; format: functional, cell-based
[15] = Tmax in NOD SCID mouse at 200 mg/kg, po; format: ADME, organism-based; conditions: in vivo
[16] = target: Protein kinase C eta type (Homo sapiens) (UniProt P24723); assay: Inhibition of PRKCH (unknown origin) at 10 uM in presence of ATP at Km concentration
Chain of Protein kinase C eta type (Homo sapiens) (P24723 whole entry): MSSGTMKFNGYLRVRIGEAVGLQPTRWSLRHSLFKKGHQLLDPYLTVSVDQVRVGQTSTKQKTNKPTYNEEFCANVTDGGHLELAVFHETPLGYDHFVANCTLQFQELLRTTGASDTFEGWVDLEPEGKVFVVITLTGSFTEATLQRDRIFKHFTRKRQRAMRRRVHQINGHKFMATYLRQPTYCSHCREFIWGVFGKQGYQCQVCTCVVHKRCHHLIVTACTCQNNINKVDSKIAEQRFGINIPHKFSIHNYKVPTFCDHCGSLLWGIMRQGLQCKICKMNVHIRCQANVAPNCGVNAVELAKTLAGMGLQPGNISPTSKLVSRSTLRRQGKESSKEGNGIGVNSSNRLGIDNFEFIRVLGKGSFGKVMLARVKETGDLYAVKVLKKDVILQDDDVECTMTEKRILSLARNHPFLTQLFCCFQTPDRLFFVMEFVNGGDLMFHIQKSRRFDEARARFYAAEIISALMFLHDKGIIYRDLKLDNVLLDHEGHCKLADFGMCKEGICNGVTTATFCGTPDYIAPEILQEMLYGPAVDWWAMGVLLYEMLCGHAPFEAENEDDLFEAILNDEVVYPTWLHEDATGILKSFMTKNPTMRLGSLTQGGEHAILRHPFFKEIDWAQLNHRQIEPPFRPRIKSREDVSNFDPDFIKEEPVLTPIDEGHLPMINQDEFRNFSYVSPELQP

[17] = Genotoxicity in Salmonella typhimurium TA1535 upto 100 uM in absence of S9 fraction by Ames test; format: toxicity; conditions: salmonella enterica subsp. enterica serovar typhimurium, s9, 100 µM
CAL-33 = assay: Antiproliferative activity against human CAL-33 cells incubated for 48 hrs by XTT assay; format: functional, cell-based; conditions: CAL-33, 48 h
[18] = Genotoxicity in Salmonella typhimurium TA1537 upto 100 uM in absence of S9 fraction by Ames test; format: toxicity; conditions: salmonella enterica subsp. enterica serovar typhimurium, s9, 100 µM
A498 [19] = assay: Antimetastatic activity against human A498 cells labeled with vybrant DiD cell-labeling solution xenografted in zebrafish embryo assessed as fold reduction in metastasis area at 1 uM pre-infected with cells for 24 hrs followed by compound addition and measured after 48 hrs by fluorescence microscopic imaging analysis; format: functional
[20] = Genotoxicity in Salmonella typhimurium TA100 upto 100 uM in presence of S9 fraction by Ames test; format: toxicity, subcellular; conditions: salmonella enterica subsp. enterica serovar typhimurium, s9, 100 µM
[21] = Clearance in NOD SCID mouse at 1 mg/kg, iv; format: ADME, organism-based; conditions: in vivo
[22] = Toxicity in athymic nude mouse xenografted with human 786-0 cells assessed as effect on food consumption at 100 mg/kg, po administered twice daily via gavage for 28 days; format: organism-based; conditions: in vivo, 672 h, time 28 day
[23] = target: Casein kinase I isoform epsilon (Homo sapiens) (UniProt P49674); assay: Inhibition of CSNK1E (unknown origin) at 10 uM in presence of ATP at Km concentration
Chain of Casein kinase I isoform epsilon (Homo sapiens) (P49674 whole entry, looked up, canonical isoform): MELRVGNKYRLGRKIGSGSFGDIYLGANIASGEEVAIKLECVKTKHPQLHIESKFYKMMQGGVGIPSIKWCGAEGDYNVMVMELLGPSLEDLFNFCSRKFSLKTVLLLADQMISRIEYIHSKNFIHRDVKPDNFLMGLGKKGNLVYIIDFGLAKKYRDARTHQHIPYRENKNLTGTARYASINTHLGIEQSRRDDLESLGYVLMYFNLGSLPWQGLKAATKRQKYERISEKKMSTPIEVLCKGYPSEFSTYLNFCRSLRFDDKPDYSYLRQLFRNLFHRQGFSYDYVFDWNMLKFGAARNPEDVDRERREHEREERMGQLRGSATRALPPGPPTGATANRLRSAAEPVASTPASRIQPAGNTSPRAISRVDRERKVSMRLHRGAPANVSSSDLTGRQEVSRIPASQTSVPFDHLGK

[24] = AUC (0 to infinity) in NOD SCID mouse at 200 mg/kg, po; format: ADME, organism-based; conditions: in vivo
[25] = Oral bioavailability in NOD SCID mouse at 50 mg/kg; format: ADME, organism-based; conditions: in vivo
A498 [26] = assay: Downregulation of CXCL5 mRNA expression in human A498 cells at 1 to 2.5 uM incubated for 48 hrs by qPCR analysis; format: functional, cell-based; conditions: dose 1-2.5 µM
[27] = target: Insulin receptor (Homo sapiens) (UniProt P06213); assay: Inhibition of INSR (unknown origin) at 10 uM in presence of ATP at Km concentration
Chain of Insulin receptor (Homo sapiens) (P06213 28-758 limits assumed): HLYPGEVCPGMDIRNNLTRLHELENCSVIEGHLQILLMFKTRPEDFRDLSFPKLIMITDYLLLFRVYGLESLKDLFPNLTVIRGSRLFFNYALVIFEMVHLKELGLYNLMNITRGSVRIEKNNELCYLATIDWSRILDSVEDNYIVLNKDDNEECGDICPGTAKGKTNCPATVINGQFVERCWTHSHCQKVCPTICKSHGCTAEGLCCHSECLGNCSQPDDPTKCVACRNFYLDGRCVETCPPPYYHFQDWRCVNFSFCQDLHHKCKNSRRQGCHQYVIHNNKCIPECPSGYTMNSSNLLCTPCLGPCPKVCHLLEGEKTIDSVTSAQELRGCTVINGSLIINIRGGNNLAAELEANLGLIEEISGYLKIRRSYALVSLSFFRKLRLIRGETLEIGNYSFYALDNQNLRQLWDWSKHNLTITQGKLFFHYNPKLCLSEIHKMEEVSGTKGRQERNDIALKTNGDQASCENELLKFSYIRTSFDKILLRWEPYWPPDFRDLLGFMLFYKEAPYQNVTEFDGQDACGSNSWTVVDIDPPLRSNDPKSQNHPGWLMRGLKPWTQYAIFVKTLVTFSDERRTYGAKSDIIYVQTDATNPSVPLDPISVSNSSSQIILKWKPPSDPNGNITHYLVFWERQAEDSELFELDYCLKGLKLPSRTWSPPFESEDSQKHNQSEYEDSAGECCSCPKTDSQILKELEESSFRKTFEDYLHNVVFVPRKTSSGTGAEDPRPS
Chain of Insulin receptor (Homo sapiens) (P06213 763-1382 limits assumed): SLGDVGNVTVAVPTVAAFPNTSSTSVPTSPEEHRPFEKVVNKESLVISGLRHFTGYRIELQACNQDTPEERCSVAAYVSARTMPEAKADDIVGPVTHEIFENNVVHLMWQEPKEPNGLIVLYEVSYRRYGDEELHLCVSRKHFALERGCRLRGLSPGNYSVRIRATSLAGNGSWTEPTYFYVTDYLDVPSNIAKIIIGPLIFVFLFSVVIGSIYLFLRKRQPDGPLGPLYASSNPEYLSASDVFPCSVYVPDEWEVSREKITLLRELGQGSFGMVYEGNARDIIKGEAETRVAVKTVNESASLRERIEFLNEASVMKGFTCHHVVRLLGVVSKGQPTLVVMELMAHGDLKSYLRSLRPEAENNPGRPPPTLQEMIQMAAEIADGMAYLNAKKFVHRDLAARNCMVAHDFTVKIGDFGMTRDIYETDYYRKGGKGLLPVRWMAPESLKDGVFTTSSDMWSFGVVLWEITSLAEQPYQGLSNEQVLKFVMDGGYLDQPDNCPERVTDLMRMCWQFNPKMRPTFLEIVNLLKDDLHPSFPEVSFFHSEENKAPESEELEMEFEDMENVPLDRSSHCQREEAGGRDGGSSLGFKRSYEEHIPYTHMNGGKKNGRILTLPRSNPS

[28] = Cmax in NOD SCID mouse at 200 mg/kg, po; format: ADME, organism-based; conditions: in vivo
[29] = Oral bioavailability in NOD SCID mouse at 200 mg/kg; format: ADME, organism-based; conditions: in vivo
[30] = target: Interleukin-8 receptors, CXCR1/CXCR2 (Homo sapiens) (UniProt P25025+P25024); assay: Inhibition of CXCR1/2 pathway in human A498 cells assessed as reduction in AKT phosphorylation at 2.5 uM incubated for 24 to 48 hrs by immunoblot analysis; format: functional, cell-based; conditions: time 24-48 hrs
[31] = target: Ephrin type-B receptor 2 (Homo sapiens) (UniProt P29323); assay: Inhibition of EPHB2 (unknown origin) at 10 uM in presence of ATP at Km concentration
[32] = target: Vascular endothelial growth factor receptor 2 (Homo sapiens) (UniProt P35968); assay: Inhibition of KDR (unknown origin) at 10 uM in presence of ATP at Km concentration
[33] = Stability of compound at pH 2 measured after 24 hrs; format: physicochemical; conditions: buffer, pH 2, 24 h
[34] = target: Mitogen-activated protein kinase kinase kinase 11 (Homo sapiens) (UniProt Q16584); assay: Inhibition of MAP3K11 (unknown origin) at 10 uM in presence of ATP at Km concentration
Chain of Mitogen-activated protein kinase kinase kinase 11 (Homo sapiens) (Q16584 whole entry, looked up): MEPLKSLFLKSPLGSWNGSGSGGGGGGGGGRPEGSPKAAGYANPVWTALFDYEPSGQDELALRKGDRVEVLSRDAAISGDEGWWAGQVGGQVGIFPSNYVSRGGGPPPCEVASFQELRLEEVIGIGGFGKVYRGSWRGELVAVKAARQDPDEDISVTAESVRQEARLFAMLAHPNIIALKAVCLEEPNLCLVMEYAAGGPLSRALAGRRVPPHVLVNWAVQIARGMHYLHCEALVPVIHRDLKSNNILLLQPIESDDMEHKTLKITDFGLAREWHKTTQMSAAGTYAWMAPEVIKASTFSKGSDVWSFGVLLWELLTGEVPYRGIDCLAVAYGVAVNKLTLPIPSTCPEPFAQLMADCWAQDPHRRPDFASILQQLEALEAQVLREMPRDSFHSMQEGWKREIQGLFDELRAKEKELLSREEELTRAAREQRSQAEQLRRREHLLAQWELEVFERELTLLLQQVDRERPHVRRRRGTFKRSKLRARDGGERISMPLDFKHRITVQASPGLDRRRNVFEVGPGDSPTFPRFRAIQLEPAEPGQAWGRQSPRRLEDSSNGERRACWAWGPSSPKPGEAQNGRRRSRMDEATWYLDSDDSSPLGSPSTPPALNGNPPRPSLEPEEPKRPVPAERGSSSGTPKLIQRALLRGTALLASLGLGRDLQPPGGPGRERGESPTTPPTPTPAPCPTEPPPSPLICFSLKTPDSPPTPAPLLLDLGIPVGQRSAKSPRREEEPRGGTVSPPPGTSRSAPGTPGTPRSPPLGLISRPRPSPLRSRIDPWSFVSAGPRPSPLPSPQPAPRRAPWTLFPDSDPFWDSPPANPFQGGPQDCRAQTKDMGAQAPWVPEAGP

CAL-27 = assay: Antiproliferative activity against human CAL-27 cells incubated for 48 hrs by XTT assay; format: functional, cell-based; conditions: CAL-27, 48 h
[35] = system: Cisplatin and radiotherapy resistant CAL33RR; assay: Inhibition of CXCL8-dependent cell migration in human Cisplatin and radiotherapy resistant CAL33RR cells at 0.5 uM incubated for 24 hrs by Boyden chamber based crystal violet staining analysis; format: functional
[36] = system: Cisplatin and radiotherapy resistant CAL33RR; assay: Inhibition of cell invasion in human Cisplatin and radiotherapy resistant CAL33RR cells cultured as 3D spheroid at 5 uM measured after 7 days by light microscopic imaging analysis; format: functional, cell-based; conditions: time 7.0 day
[37] = target: CDK8/Cyclin C (Homo sapiens) (UniProt P49336+P24863); assay: Inhibition of CDK8/cyclin C (unknown origin) at 10 uM in presence of ATP at Km concentration; format: protein-complex assay
A498 [38] = assay: Inhibition of cell invasion in human A498 cells cultured as 3D spheroids at 5 uM measured after 7 days by light microscopic imaging analysis relative to control; format: functional; conditions: A498, 168 h, time 7 day
[39] = target: Mitogen-activated protein kinase 15 (Homo sapiens) (UniProt Q8TD08); assay: Inhibition of MAPK15 (unknown origin) at 10 uM in presence of ATP at Km concentration
Chain of Mitogen-activated protein kinase 15 (Homo sapiens) (Q8TD08 whole entry): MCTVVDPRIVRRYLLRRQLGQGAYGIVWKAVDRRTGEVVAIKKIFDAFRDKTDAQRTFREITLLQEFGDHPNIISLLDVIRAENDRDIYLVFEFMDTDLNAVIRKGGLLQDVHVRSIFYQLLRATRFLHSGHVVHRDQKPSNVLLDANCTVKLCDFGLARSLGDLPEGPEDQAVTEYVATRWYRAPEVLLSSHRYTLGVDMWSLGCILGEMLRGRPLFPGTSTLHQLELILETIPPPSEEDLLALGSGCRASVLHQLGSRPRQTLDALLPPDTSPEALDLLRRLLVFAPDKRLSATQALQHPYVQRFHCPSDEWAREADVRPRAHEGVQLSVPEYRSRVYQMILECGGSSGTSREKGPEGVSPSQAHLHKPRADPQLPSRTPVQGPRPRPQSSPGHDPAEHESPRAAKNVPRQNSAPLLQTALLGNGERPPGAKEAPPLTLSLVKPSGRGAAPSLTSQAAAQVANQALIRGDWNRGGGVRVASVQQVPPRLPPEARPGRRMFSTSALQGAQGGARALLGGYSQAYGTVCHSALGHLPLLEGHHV

- inhibition [1]: inactive
- remaining at 1 h [2]: 76%
- inhibition [3]: inactive
- inhibition [4]: inactive
- half-life [5]: > 4.82 h
- AUC(0-inf) [7]: 433 ng·h/mL
- inhibition [8]: inactive
- inhibition [10]: inactive
- inhibition [11]: inactive
- half-life [13]: 2.2 h
- Tmax [15]: 1 h
- inhibition [16]: inactive
- clearance [21]: 39.3 mL/min/kg
- inhibition [23]: inactive
- AUC(0-inf) [24]: 19300 ng·h/mL
- bioavailability [25]: 39%
- inhibition [27]: inactive
- Cmax [28]: 5.2 µM
- bioavailability [29]: 22%
- inhibition [30]: Active
- inhibition [31]: inactive
- inhibition [32]: inactive
- Stability [33]: Stable
- inhibition [34]: inactive
- inhibition [37]: inactive
Compound: O=C(Nc1cc(Cl)cc(Cl)c1)Nc1nc2ccc([N+](=O)[O-])cc2s1
- Activity [6]: Non-Toxic
- inhibition (A498 [9]): Active
- inhibition (A498 [12]): Active
- pIC50 [14]: 5.40
- Activity [17]: Non-Toxic
- pIC50 (CAL-33): 5.40
- Activity [18]: Non-Toxic
- fold change (FC) (A498 [19]): ~4
- Activity [20]: Non-Toxic
- Activity [22]: Non-Toxic
- Activity (A498 [26]): Active
- pIC50 (CAL-27): 5.60
- inhibition [35]: Active
- inhibition [36]: Active
- inhibition at 5 µM (A498 [38]): > 75%
- inhibition [39]: inactive
